Results from article PMC5037430 (Scientific Reports, 2016).
Read-outs that look alike come from different tables or passages of the source.

Target: T1, glycolate oxidase (GO); hydroxyacid oxidase 1 (HAO1) (Homo sapiens, UniProt Q9UJM8)
T1 construct: recombinant full-length human HAO1
T1 sequence (Q9UJM8 1-370): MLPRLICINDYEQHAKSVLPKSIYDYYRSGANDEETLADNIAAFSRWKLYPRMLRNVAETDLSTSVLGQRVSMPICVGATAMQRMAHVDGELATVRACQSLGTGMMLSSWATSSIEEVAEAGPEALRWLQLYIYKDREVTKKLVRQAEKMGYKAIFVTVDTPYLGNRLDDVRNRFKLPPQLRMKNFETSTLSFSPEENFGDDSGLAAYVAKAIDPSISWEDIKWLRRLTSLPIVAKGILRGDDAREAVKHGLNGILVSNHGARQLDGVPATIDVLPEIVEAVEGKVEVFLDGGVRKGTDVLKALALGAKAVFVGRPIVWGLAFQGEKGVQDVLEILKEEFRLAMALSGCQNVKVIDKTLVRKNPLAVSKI
Experiment: hydrogen peroxide-Amplex red GO enzymatic assay; partial inhibition, less than […] at […]
Format: biochemical

| Structure (SMILES) | IC50 (read-out: IC50) [µM] | IC50 [µM] |
| --- | --- | --- |
| CC[C@H](NC(=O)c1c(C)c(-c2ccccc2)nc2ccccc12)c1ccccc1 [SB 222200] | > 100 | – |
| CCCc1nc2c(C)cc(-c3nc4ccccc4n3C)cc2n1Cc1ccc(-c2ccccc2C(=O)O)cc1 [Telmisartan] | – | > 100 |
